In assay [1] the test system is human papilloma virus-like particles (VLP's). To be noted: Joyce et al. 1999; cited from earlier work.
The test system of assay [2] is BPV-1. The assay can be described thus: BPV-1 focus-forming assay, virus preincubated with compound (Table C). The conditions noted are these: C127 cell line. Type of assay: cell-based, bovine papilloma virus. As to the method:
In a similar study using the BPV-1 focus forming assay, the effect of the cellulose sulfate and dextran sulfate on BPV was tested. In this study, cellulose sulfate tested was as described above. Dextran sulfate used was from Dextran Products Limited (Lot DSM-122) prepared using dextan of average Mr of about 500,000 (based on viscosity) and is estimated to have a final average Mr greater than about 500,000 and may be about 1 to 1.1 million.
Microbicidal activity of the compounds was tested using the well-characterized BPV-1 focus-forming assay (Dvoretzky, I., R. Shober, S. K. Chattopadhyay, and D. R. Lowy. 1980. A quantitative in vitro focus assay for bovine papilloma virus. Virology 103:369-375), with modifications for microbicide testing (Hermonat, P. L., (1992) supra; Howett, M. K., et al. (1999) supra. The terms inhibiting or microbicidal activity when used are intended to refer broadly to microbe infection and/or microbe inactivating effect.
Aliquots of BPV-1 containing approximately 100-200 focus-forming units were preincubated with dilutions of compounds for 10 min at 37° C. prior to addition to cultures of mouse C127 cells. Cultures of C127 cells were set up in T25 tissue culture flasks (Corning, N.Y.), containing 3×10^5 cells per flask. Virus-compound mixtures in a total of 50 μl were then added to flasks in 1 ml of media, and an additional 3 ml of media added after 24 hrs culture. Media was changed every 3-4 days for a period of 2 weeks. Foci were enumerated following staining of the monolayer with crystal violet and counting stained foci microscopically. Each concentration of compound was tested in duplicate, and the mean±SD of foci number for the preincubation virus-drug concentration for each compound is shown below as Table C.
Clones were derived from the parental C127 cell line because of the consistent failure of BPV-1 to induce foci following several cell passages of the uncloned parental cell line. One clone, labeled C127-D10, which produced foci upon BPV-1 infection, was chosen for a repeat testing of the compounds. When this clone was tested for microbicidal activity, less compound was required to achieve high reduction in BPV-1-induced foci when compared to the uncloned parental-C127 cells.

Assay [3] relates to BPV-1. The assay can be described thus: BPV-1 focus-forming assay, cells pre-incubated with compound and washed before virus (Table D). The class given is cell-based, bovine papilloma virus. To be noted: for Average ± standard deviation (foci/well): C127-D10 cells, washed before virus. As to the method:
Microbicidal activity of compounds was also tested by pre-incubation of cells with compounds followed by addition of virus to compound-coated C127 cells. In these experiments, dilutions of compounds were added to cultures of C127 cells, incubated for 1 hr at 37° C., washed 3 times with media to remove unbound compound, prior to addition of approximately 100 focus-forming units of BPV-1. The cultures were incubated for an additional hour, washed three times to remove unbound virus, then the incubation was continued for two weeks with media changes every 3-4 days and foci counted as described above.
Pre-incubation of C127-D10 cells with compounds prior to addition of BPV-1 was tested to determine whether the microbicidal effects of CS and DS extended to a blockage of virus interaction with cell surfaces. In these experiments, titrations of compounds were added to cell cultures followed by washing away unbound reagent prior to addition of virus. After a one-hour incubation with virus, unbound virus was removed by washing and the cultures monitored for foci after two weeks.

In assay [4] the test system is HPV-11. Nature of the assay: RT-PCR ELISA for transient infection of human A431 cells, HPV-11. The class given is cell-based, human papilloma virus. To be noted: with virus (HPV-11). The protocol: (§1) Cellulose sulfate and dextran sulfate were each prepared as a 2 mg/ml solution in 0.9% NaCl and tested for microbicidal activity using the in vitro HPV transient infection assay originally described by Smith and colleagues (Smith, L. H., C. Foster, M. E. Hitchcock, and R. Isseroff. 1993. In vitro HPV-11 infection of human foreskin. J. Invest. Dermatol. 101:292-295) with some modifications (Ludmerer, S. W., W. L. McClements, X. M. Wang, J. C. Ling, K. U. Jansen, and N. D. Christensen. 2000. HPV11 mutant virus-like parties elicit immune responses that neutralize virus and delineate a novel neutralizing domain. Virology 266:237-245). An ELISA-based read-out of Optical Density (OD) values using alkaline phosphatase cleavage of the substrate p-nitrophenyl phosphate was also used to measure HPV infection as described below.
(§2) A modification of the RT-PCR assay that incorporates an ELISA-based read-out (Boehringer-Mannheim) was also included to assess microbicidal activity. Replicate cell cultures of A431 cells were infected with an aliquot of infectious HPV virions as described above. After 4 days of culture, cells were harvested and RNA extracted. RNA was subjected to RT using downstream anti-sense (reverse) primers for HPV-11 or HPV-40 and β-actin (as a control/housekeeping cellular transcript) to initiate cDNA synthesis. The cDNA was processed through 2 sets of 30 cycles of PCR amplification using nested primers: the second set of cycles used digoxygenin (DIG)-dUTP to label the PCR products with DIG. DIG-labeled PCR products were denatured then renatured together with a biotinylated oligonucleotide specific for the targeted PCR product. Biotinylated products were detected in ELISA with plates coated with streptavidin (to capture the biotinylated target PCR product) then anti-DIG antibody and substrate. Labeled PCR products were added directly to ELISA plates, or titrated at 10-fold dilutions in duplicate for each cell culture for each virus dilution.

The subject of assay [5] is HPV-40. The assay can be described thus: RT-PCR ELISA for transient infection of human A431 cells, HPV-40. Type of assay: cell-based, human papilloma virus. The conditions noted are these: with virus (HPV-40). The protocol: as §1
The RT-PCR assay to detect HPV-40 infection was designed similarly for the detection of HPV-11 infection as described above.
as §2
The microbicidal activity was assessed either as the detection of ethidium stained PCR products or as an ELISA-based read-out as described above. […] An initial experiment was conducted to test the specificity of the ELISA-based RT-PCR assay using HPV-11 and HPV-40 infection of A431 cells (Table E).

The subject of assay [6] is papillomaviruses. The conditions noted are these: literature; cited from earlier work.
[7] abbreviates: 100 μg/ml at viral pretreatment.

As for heparin [reference compound], the “binding of VLP's to HaCaT cells” value in assay [1] is recorded as “inhibited”.

In the case of Dextran sulfate, the “inhibition of papilloma virus infectivity” value is “moderate inhibition” in assay [2] (100 μg/ml) and “very high inhibition” in assay [2] (1 mg/ml). Also, the “Average ± standard deviation (foci/well)” value stood at 31 ± 16.9 foci/well in assay [3] (10 μg/ml), 15 ± 4.6 foci/well in assay [3] (100 μg/ml), 4 ± 2.6 foci/well in assay [3] (1,000 μg/ml) and 0 foci/well in assay [3] (10,000 μg/ml). In addition, the “reduction of BPV-1-induced foci” value in assay [3] (10 μg/ml, cells pre-treated, washed) is “substantial reduction in foci”. Besides, the “Mean (SD) of O.D. reading for RT-PCR ELISA, HPV-11 probe” value is reported as 0.023 (0.000) O.D in assay [4] (10 μg/ml at viral pretreatment) and 0.035 (0.000) O.D in assay [4] (setting [7]). For the same substance, the “Mean (SD) of O.D. reading for RT-PCR ELISA, HPV-40 probe” value in assay [5] (10 μg/ml at viral pretreatment) is 0.042 (0.007) O.D; in assay [5] (setting [7]) it was 0.375 (0.073) O.D; in assay [5] (1000 μg/ml at viral pretreatment), 0.006 (0.007) O.D. Besides, the “binding of VLP's to HaCaT cells” value in assay [1] is “inhibited”.

With nonoxynol-9, the “microbicidal activity against papillomaviruses” value in assay [6] is listed as “ineffective”.

The values above are taken from patent US7235536B2, “Cellulose sulfate and other sulfated polysaccharides to prevent and treat papilloma virus infection and other infections” (Rush Presbyterian-St. Luke's Medical Center, priority 2000, dated 2007).
